# Several values for one entry are separate records, joined by “and”; a condition that tells them apart may be missing. Equal values may be shown once.
# Assays:
# Type in all cases: cell-based
# [1] = tested on: MCF-7 cells; test: Cytoxicity on MCF-7 cells (drug inhibition, cell count); parameters: Drug Inhibition on MCF-7 Cells / MCF-7 Mean (drug inhibition) / Drug inhibition on MCF-7 Cells Mean: unit not given here; settings: MCF-7 cells; for Drug Inhibition on MCF-7 Cells: Table 8 summary; for % Inhibition Mean / Cells (×10^4) Mean / % Inhibition / Cells (×10^4): Exp. Nov. 14 to Nov. 18, 2005; for % Inhibition / Cells (×10^4): single replicates
# Source text: (§1) The purified and identified analogs were subjected to in vitro biological testing. […] These three congeners were further evaluated in H9 and PC3 cells. AZT was employed as a positive control in all of these experiments.
# [2] = tested on: PC-3 cells; test: Cytoxicity on PC-3 cells (drug inhibition, cell count); settings: for Drug Inhibition on PC-3 cells: Table 7; for % Inhibition Mean / Cells (×10^4) Mean / % Inhibition / Cells (×10^4): Exp. Nov. 11 to Nov. 17, 2005; for % Inhibition / Cells (×10^4): single replicates
# Source text: The purified and identified analogs were subjected to in vitro biological testing.
# [3] = tested on: H-9 cells; test: Cytoxicity on H-9 cells (drug inhibition, cell count); settings: for H-9 Mean (drug inhibition): Table 4 summary; for % Inhibition Mean / Cells (×10^4) Mean / % Inhibition / Cells (×10^4): Exp. Dec. 05 to Dec. 09, 2005; for % Inhibition / Cells (×10^4): single replicates
# Source text: as §1
smiles,measurement,setting,value
COc1ccc(C=CC(=O)c2cc(C)cc([N+](=O)[O-])c2O)cc1OC [CHNM 2M],Drug Inhibition on MCF-7 Cells,[1]; 1 μg/ml,6.77
same,% Inhibition Mean,[1]; 1 μg/ml,6.77%
same,Cells (×10^4) Mean,[1]; 1 μg/ml,53.92 ×10^4
same,% Inhibition,[1]; 1 μg/ml,8.36% and 4.47% and 7.49%
same,Cells (×10^4),[1]; 1 μg/ml,53.0 ×10^4 and 55.3 ×10^4 and 53.5 ×10^4
same,Drug Inhibition on MCF-7 Cells,[1]; 5 μg/ml,20.17
same,% Inhibition Mean,[1]; 5 μg/ml,20.17%
same,Cells (×10^4) Mean,[1]; 5 μg/ml,46.17 ×10^4
same,% Inhibition,[1]; 5 μg/ml,21.33% and 22.19% and 17.00%
same,Cells (×10^4),[1]; 5 μg/ml,45.5 ×10^4 and 45.0 ×10^4 and 48.0 ×10^4
same,Drug Inhibition on MCF-7 Cells,[1]; 10 μg/ml,31.27
same,% Inhibition Mean,[1]; 10 μg/ml,31.27%
same,Cells (×10^4) Mean,[1]; 10 μg/ml,39.75 ×10^4
same,% Inhibition,[1]; 10 μg/ml,29.97% and 32.56% and 31.27%
same,Cells (×10^4),[1]; 10 μg/ml,40.5 ×10^4 and 39.0 ×10^4 and 39.8 ×10^4
same,Drug Inhibition on MCF-7 Cells,[1]; 50 μg/ml,42.07
same,% Inhibition Mean,[1]; 50 μg/ml,42.07%
same,Cells (×10^4) Mean,[1]; 50 μg/ml,33.50 ×10^4
same,% Inhibition,[1]; 50 μg/ml,43.80% and 40.35% and 42.07%
same,Cells (×10^4),[1]; 50 μg/ml,32.5 ×10^4 and 34.5 ×10^4 and 33.5 ×10^4
same,Drug Inhibition on PC-3 cells,[2]; 1 μg/ml,27.9
same,% Inhibition Mean,[2]; 1 μg/ml,9.10%
same,Cells (×10^4) Mean,[2]; 1 μg/ml,89.08 ×10^4
same,% Inhibition,[2]; 1 μg/ml,9.69% and 17.09% and 0.51%
same,Cells (×10^4),[2]; 1 μg/ml,88.5 ×10^4 and 81.3 ×10^4 and 97.5 ×10^4
same,Drug Inhibition on PC-3 cells,[2]; 5 μg/ml,39.36
same,% Inhibition Mean,[2]; 5 μg/ml,36.05%
same,Cells (×10^4) Mean,[2]; 5 μg/ml,62.67 ×10^4
same,% Inhibition,[2]; 5 μg/ml,39.29% and 36.99% and 31.89%
same,Cells (×10^4),[2]; 5 μg/ml,59.5 ×10^4 and 61.8 ×10^4 and 66.8 ×10^4
same,Drug Inhibition on PC-3 cells,[2]; 10 μg/ml,45.03
same,% Inhibition Mean,[2]; 10 μg/ml,35.80%
same,Cells (×10^4) Mean,[2]; 10 μg/ml,62.92 ×10^4
same,% Inhibition,[2]; 10 μg/ml,36.22% and 38.52% and 32.65%
same,Drug Inhibition on PC-3 cells,[2]; 50 μg/ml,59.67
same,% Inhibition Mean,[2]; 50 μg/ml,48.81%
same,Cells (×10^4) Mean,[2]; 50 μg/ml,50.17 ×10^4
same,% Inhibition,[2]; 50 μg/ml,49.23% and 46.43% and 50.77%
same,H-9 Mean (drug inhibition),[3]; 1 μg/ml,−15.75
same,% Inhibition Mean,[3]; 1 μg/ml,−15.75%
same,Cells (×10^4) Mean,[3]; 1 μg/ml,58.17 ×10^4
same,% Inhibition,[3]; 1 μg/ml,−13.93% and −19.90% and −13.43%
same,Cells (×10^4),[3]; 1 μg/ml,57.3 ×10^4 and 60.3 ×10^4 and 57.0 ×10^4
same,H-9 Mean (drug inhibition),[3]; 5 μg/ml,−16.58
same,% Inhibition Mean,[3]; 5 μg/ml,−16.58%
same,Cells (×10^4) Mean,[3]; 5 μg/ml,58.58 ×10^4
same,% Inhibition,[3]; 5 μg/ml,−22.39% and −10.45% and −16.92%
same,Cells (×10^4),[3]; 5 μg/ml,61.5 ×10^4 and 55.5 ×10^4 and 58.8 ×10^4
same,H-9 Mean (drug inhibition),[3]; 10 μg/ml,−1
same,% Inhibition Mean,[3]; 10 μg/ml,−1.00%
same,Cells (×10^4) Mean,[3]; 10 μg/ml,50.75 ×10^4
same,% Inhibition,[3]; 10 μg/ml,−0.50% and −3.98% and 1.49%
same,Cells (×10^4),[3]; 10 μg/ml,50.5 ×10^4 and 52.3 ×10^4 and 49.5 ×10^4
same,H-9 Mean (drug inhibition),[3]; 50 μg/ml,−11.44
same,% Inhibition Mean,[3]; 50 μg/ml,−11.44%
same,Cells (×10^4) Mean,[3]; 50 μg/ml,56.00 ×10^4
same,% Inhibition,[3]; 50 μg/ml,−12.94% and −8.96% and −12.44%
same,Cells (×10^4),[3]; 50 μg/ml,56.8 ×10^4 and 54.8 ×10^4 and 56.5 ×10^4

# — patent publication US8314143B2, “Synthetic flavonoids and pharmaceutical compositions and therapeutic methods of treatment of HIV infection and other pathologies” (Florida A&M University, priority 2006, dated 2012)
